Results on ten molecules are retold here after patent US11535622B2, “Pyrrolo[1,2-b] pyridazine derivatives” (Gilead Sciences, Inc., priority 2018, dated 2022).

Where two headings read alike, the source gives them in different places.

Series [1] relates to human cryopreserved hepatocytes. The experiment in a line: Metabolic stability in cryopreserved hepatocytes. The note with it: 1 μM test compound. It is filed as in vitro ADME. On the procedure:
Metabolic Stability in Cryopreserved Hepatocytes: Complete HT medium was prepared by the addition of 1 mL Torpedo Antibiotic Mix to 45 mL of InVitroGRO™ HT medium. Supplemented KHB medium consisted of KrebsHenseleit buffer with amikacin (84 μg/mL), calcium chloride (1 mM), gentamicin (84 μg/mL), HEPES (20 mM), heptanoic acid (4.2 μM) and sodium bicarbonate (28.5 mM) and the pH was adjusted to 7.4 at 37° C. using 1 M NaOH or 1 M HCl. The human cryopreserved hepatocytes were pooled from ten adult donors (Celsis, Lot: HBZ).
Vials containing cryopreserved hepatocytes were removed from liquid nitrogen and immediately immersed in a 37° C. water bath. The vials were shaken gently until the contents had thawed and were then immediately emptied into 48 mL of pre warmed Complete HT Medium in a 50 mL conical tube. Cells remaining in the vial were resuspended with 1.0 mL of pre warmed Complete HT Medium and added to the conical tube. The tube was capped and then gently inverted several times to resuspend the hepatocytes. The cell suspension was centrifuged at 50×g at room temperature for 5 minutes and the supernatant discarded. The cell pellet was loosened by gently swirling the centrifuge tube and Supplemented KHB medium was added to obtain a target density of 2×10^6 cells/mL. The total cell count and the proportion of viable cells were determined by Trypan Blue dye exclusion using a hemocytometer.
For incubations, aliquots of hepatocyte suspension (250 μL containing 500,000 cells) were added to 250 μL of 2 μM test compound or metabolic stability controls in supplemented KHB in duplicate wells in a 24-well plate. Final concentration in the incubations were 1×10^6 cells/mL and 1 μM test compound. 7-Hydroxycoumarin and testosterone, compounds known to be efficiently metabolized by hepatocytes, were used as positive controls in parallel incubations ([…] final concentration of each compound). The incubation was carried out with gentle shaking at 37° C. under a humid atmosphere of 95% air/5% CO2 (v/v). Aliquots (50 μL) were removed after 0, 1, 3, and 6 hours and added to 100 μL IS/Q quenching solution. After termination, 150 μL of water was added, the plates were centrifuged at 3000×g for 10 min, and aliquots of the supernatant were analyzed on a Micromass Quattro Premier mass spectrometer coupled to an Agilent 1200 Series HPLC system with a Leap Technologies HTC PAL autosampler as described below.
Liquid Chromatography-Mass Spectrometry: Quantification of test compound and metabolic stability controls was performed by analyte/internal standard peak area ratios (PAR) measured on a Micromass Quattro Premier XL tandem triple quadrupole mass spectrometer coupled to an Agilent 1200 Series HPLC system with a Leap Technologies HTC PAL autosampler. The column used was a Phenomenex® MercuryMS™, Synergi Max-RP (100 Å pore size, 2.5 μm particle size, 20×2.0 mm). Mobile Phase A consisted of 0.2% (v/v) formic acid in 99% water/1% acetonitrile (v/v). Mobile Phase B consisted of 0.2% (v/v) formic acid in 5% water/95% acetonitrile (v/v). Elution was achieved by the following series of linear gradients: initial conditions of 0% B, holding for 30 s, then increasing to 100% B over 90 s, and then returning to the initial conditions over 1 s. The system was allowed to re-equilibrate for a minimum of 60 s between injections. The sample injection volume was 10 μL.

A short description of series [2]: pKa determination (pKa PRO Analyzer). The class given is physicochemical. On the procedure:
Sample Preparation: A stock solution of test compound in dimethyl sulfoxide (DMSO) having a final concentration of 10 mM was prepared and used in all experiments. The DMSO stocks were thawed, spun, and sonicated in a 40° C. water bath to facilitate dissolution.
The compounds were then transferred into 24 consecutive wells of a 96 well PCR plate for analysis with the aqueous method. […] The compounds were transferred into 24 consecutive wells of a 96 well plate for analysis using the co-solvent method.
Analysis: All data was obtained using a pKa PRO Analyzer (AATI, Ames, Iowa). For the aqueous method, an electrophoretic separation is performed in parallel across 24 different pH values, providing a direct measure of overall compound charge vs. pH. The compounds are detected by UV at 228 nm. The average pH spacing between buffer points is 0.4 pH units covering a typical pH range of 1.7-11.2.
The average pH spacing between buffer points is 0.4 pH units covering a pH range of 1.7-11.2. Four consecutive CE runs are performed for each compound starting with 60% co-solvent buffers and decreasing to 30% co-solvent buffers.
Norfloxacin is used as a daily performance-indicating standard.
Calculation of Results: The total number of pKa values is predicted by relating mobility and compound molecular weight using pKa Estimator® software (AATI, Ames, Iowa).

Series [3] has as its target IRAK4 enzyme (Homo sapiens (Human), UniProt Q9NWZ3). The series can be described thus: IRAK4 biochemical assay (HTRF/TR-FRET). To be noted: 500 μM ATP. For orientation: TR-FRET usually uses a lanthanide donor and a delayed reading to cut background.
Protocol: IRAK4 enzyme (Carna Biosciences, Chuo-ku, Kobe, Japan) activity was measured by detecting phosphorylated peptide substrate formation using an antibody against the phosphorylated peptide substrate. This is a time-resolved fluorescence resonance energy transfer (TR-FRET) immunoassay, based on the STK1 KnEASE Assay (Cisbio, Bedford, Mass.). […] Compounds diluted in DMSO were spotted into 384 well plates using a Labcyte® Echo 550 Liquid Handling System prior to addition of IRAK4 enzyme and peptide substrate. Reaction solutions were delivered using a Multi-Flo (Bio-Tek Instruments). The enzyme and peptide solution was incubated with compound for 15 minutes at room temp before the reaction was initiated by the addition of ATP.
For series [4], the target named is cloned hERG potassium channel encoded by the KCNH2 gene (Homo sapiens (Human), UniProt Q12809). The experiment in a line: Automated hERG assay (FASTPatch, QPatch). To be noted: HEK293T cells, patch clamp, 0.3-30 uM. It is filed as cell-based. (The hERG channel carries a current that helps repolarise heart muscle cells.)
Sequence of cloned hERG potassium channel encoded by the KCNH2 gene (Q12809 whole entry): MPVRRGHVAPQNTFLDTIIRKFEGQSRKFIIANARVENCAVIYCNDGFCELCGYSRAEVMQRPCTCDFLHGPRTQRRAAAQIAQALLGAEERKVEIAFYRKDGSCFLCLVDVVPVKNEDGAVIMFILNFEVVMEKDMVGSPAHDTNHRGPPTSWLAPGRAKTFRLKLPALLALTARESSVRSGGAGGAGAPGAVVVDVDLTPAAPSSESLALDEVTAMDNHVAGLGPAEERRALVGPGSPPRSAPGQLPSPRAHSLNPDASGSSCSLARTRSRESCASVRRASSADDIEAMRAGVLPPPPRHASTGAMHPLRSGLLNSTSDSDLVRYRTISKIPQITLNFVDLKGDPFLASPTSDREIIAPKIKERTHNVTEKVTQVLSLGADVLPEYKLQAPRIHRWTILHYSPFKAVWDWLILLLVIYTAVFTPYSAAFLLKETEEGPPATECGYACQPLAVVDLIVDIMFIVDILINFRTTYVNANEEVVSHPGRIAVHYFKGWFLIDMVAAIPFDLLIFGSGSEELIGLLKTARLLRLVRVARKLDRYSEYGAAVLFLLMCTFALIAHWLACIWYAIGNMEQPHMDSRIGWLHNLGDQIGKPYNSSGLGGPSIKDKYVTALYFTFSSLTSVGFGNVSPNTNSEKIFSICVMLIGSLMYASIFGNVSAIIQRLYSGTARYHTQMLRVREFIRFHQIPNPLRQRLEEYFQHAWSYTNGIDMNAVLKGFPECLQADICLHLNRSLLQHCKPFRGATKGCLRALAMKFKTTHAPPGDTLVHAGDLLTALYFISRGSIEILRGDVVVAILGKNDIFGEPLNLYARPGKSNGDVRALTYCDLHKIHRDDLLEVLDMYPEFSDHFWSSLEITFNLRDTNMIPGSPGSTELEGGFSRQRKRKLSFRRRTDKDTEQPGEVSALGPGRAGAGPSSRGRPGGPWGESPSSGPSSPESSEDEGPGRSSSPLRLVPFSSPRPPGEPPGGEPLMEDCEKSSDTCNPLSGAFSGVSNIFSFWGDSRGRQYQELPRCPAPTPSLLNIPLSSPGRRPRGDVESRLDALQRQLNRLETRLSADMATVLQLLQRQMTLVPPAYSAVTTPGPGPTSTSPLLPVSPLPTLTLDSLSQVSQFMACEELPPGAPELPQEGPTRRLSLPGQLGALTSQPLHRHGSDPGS
Protocol: The FASTPatch® Assay (Charles River) was used to examine the in vitro effects of various compounds on the cloned hERG potassium channel encoded by the KCNH2 gene and stably expressed in HEK293T cells. Vehicle, test and control article formulations were prepared by diluting DMSO stock solutions in HB-PS (HEPES-buffered physiological saline solution), and were delivered to cells via the QPatch robot pipetting system to a final concentration of 0.3% DMSO. […] The positive control, 50 nM Cisparide, was applied in the same manner. Cell membrane currents were recorded at room temperature with up to 48 parallel patch clamp amplifiers in the QPatch HT® or QPatch HTX® system, and only cells with validated whole-cell recordings (seal resistance ≥200 MO and leak current ≤25% channel current) were used. Onset and block of hERG current was measured using a stimulus voltage pattern consisting of a 500 ms prepulse to −40 mV, a 2-second activating pulse to +40 mV, followed by a 2-second test pulse to −40 mV. The pulse pattern was repeated continuously at 10-second intervals from a holding potential of −80 mV. TurboSol analysis for test compound solubility was performed for each concentration tested using a Nephelostar reader measuring light scatter from a 635 nm laser source. […]
For series [5], the system named is TNFα. The experiment in a line: IRAK4 monocyte TNFα cell based assay (LPS stimulated). The arrangement: species or system human.
Protocol: IRAK4 Monocyte TNFα Cell Based Assay Procedure:
The cell suspension was then plated at a density of 5,000 cells/well onto black 384 well Greiner clear bottom plates. Plates were pre-spotted with test compounds and serially diluted in DMSO where 40 nL/well were delivered using the Echo 550 acoustic liquid dispenser (Labcyte®) for a final DMSO concentration of 0.1%. Plated cells were treated with compound for 1 hour at 37° C. Cells were then stimulated with 50 pg/ml of LPS (Sigma) excluding outside columns of plate used for unstimulated cell control wells. Cells were incubated for an additional 4 hours at 37° C. Cells were then spun out of the media and 5 μl of sample were taken and analyzed for total TNFα content using the TR-FRET Human TNFα detection system (CisBio). This system utilizes two labeled antibodies (cryptate and XL665) that bind to two different epitopes of the TNFα molecule and produce FRET signal proportional to the concentration of TNFα in the sample. Detection antibodies are mixed 50:50 and 5 μL were dispensed into each well. Plates were covered with clear seals and incubated at room temp overnight. […] Percent of control was calculated as follows: % Control=100×(RatioSample−Ratio0% stimulation)/(Ratio100% Stimulation−Ratio0% Stimulation) where unstimulated cells (0% stimulation) were the negative control and stimulated cells (100% stimulation) were used as the positive control.
[6] abbreviates: human monocytes, LPS 50 pg/ml, TNFα by TR-FRET, read-out: EC50 TNF.

Sequence of IRAK4 enzyme (Q9NWZ3 whole entry): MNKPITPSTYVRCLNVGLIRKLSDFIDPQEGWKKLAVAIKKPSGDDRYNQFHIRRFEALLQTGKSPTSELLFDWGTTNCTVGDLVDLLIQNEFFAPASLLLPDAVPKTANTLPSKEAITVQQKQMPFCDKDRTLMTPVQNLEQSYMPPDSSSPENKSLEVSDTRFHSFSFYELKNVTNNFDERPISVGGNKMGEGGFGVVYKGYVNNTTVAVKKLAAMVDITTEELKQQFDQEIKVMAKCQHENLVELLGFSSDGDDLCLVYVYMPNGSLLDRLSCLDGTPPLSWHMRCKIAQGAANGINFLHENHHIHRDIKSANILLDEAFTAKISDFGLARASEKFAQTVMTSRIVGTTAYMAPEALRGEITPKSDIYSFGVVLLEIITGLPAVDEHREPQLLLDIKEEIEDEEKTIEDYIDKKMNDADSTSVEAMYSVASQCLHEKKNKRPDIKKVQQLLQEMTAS

What is called pKa is the negative logarithm of the acid dissociation constant. In general, IC50 refers to the concentration at which inhibition is half-maximal. The low end stands for inhibition by little substance, the high end for a need for much substance. Usually EC50 stands for the concentration that produces a half-maximal response. Consider `CC(C)Nc1cc(-c2ccc3cc(C#N)cnn23)ncc1C(=O)NC[C@@H](F)C(C)(C)O` [A, reference compound], for which the “Human Hep. Stability” value in series [1] is 0.20 L/h/kg. This molecule also yielded a pKa in series [2] of 6.1. Further, the IC50 in series [3] was less than 0.001 µM; in series [4], 3.9 µM. The EC50 in series [5] (setting [6]) came to 0.023 µM; in series [5] (protein adjusted, competitive equilibrium dialysis, human plasma versus CCM with 10% FBS, read-out: Protein Adj. EC50 TNF) it was 0.504 µM.
As for `CNc1cc(-c2ccc3cc(C#N)cnn23)ncc1C(=O)NC[C@@H](F)C(C)(C)O` [Compound 1, (R)-6-(3-cyanopyrrolo[1,2-b]pyridazin-7-yl)-N-(2-fluoro-3-hydroxy-3-methylbutyl)-4-(methylamino)nicotinamide], the “Human Hep. Stability” value in series [1] stood at 0.05 L/h/kg. This molecule registered a pKa in series [2] of 6.6.
For `CC(C)(O)[C@H](F)CNC(=O)c1cnc(-c2ccc3cc(C#N)cnn23)cc1NCC#N` [Compound 2, (R)-4-((cyanomethyl)amino)-6-(3-cyanopyrrolo[1,2-b]pyridazin-7-yl)-N-(2-fluoro-3-hydroxy-3-methylbutyl)nicotinamide] the same measures were 0.13 L/h/kg and 5.1.
As to `C[C@H](C#N)Nc1cc(-c2ccc3cc(C#N)cnn23)ncc1C(=O)NC[C@@H](F)C(C)(C)O` [Compound 3, 4-(((R)-1-cyanoethyl)amino)-6-(3-cyanopyrrolo[1,2-b]pyridazin-7-yl)-N-((R)-2-fluoro-3-hydroxy-3-methylbutyl)nicotinamide], the “Human Hep. Stability” value in series [1] stood at 0.08 L/h/kg. The pKa in series [2] was 4.9.
Take `CC[C@H](C#N)Nc1cc(-c2ccc3cc(C#N)cnn23)ncc1C(=O)NC[C@@H](F)C(C)(C)O` [Compound 5, 4-(((R)-1-cyanopropyl)amino)-6-(3-cyanopyrrolo[1,2-b]pyridazin-7-yl)-N-((R)-2-fluoro-3-hydroxy-3-methylbutyl)nicotinamide]: in series [3], the 50% inhibitory concentration (IC50) turned out to be 0.001 µM. Moreover, the half-maximal effective concentration (EC50) in series [5] (setting [6]) stood at 0.06 µM.
In the case of `CC[C@@H](C#N)Nc1cc(-c2ccc3cc(C#N)cnn23)ncc1C(=O)NC[C@@H](F)C(C)(C)O` [Compound 6, 4-(((S)-1-cyanopropyl)amino)-6-(3-cyanopyrrolo[1,2-b]pyridazin-7-yl)-N-((R)-2-fluoro-3-hydroxy-3-methylbutyl)nicotinamide], the IC50 in series [3] was 0.005 µM. Further, the EC50 in series [5] (setting [6]) was determined as 0.267 µM.
As to `CC(C)(O)[C@H](F)CNC(=O)c1cnc(-c2ccc3cc(C#N)cnn23)cc1NCCC#N` [Compound 7, (R)-4-((2-cyanoethyl)amino)-6-(3-cyanopyrrolo[1,2-b]pyridazin-7-yl)-N-(2-fluoro-3-hydroxy-3-methylbutyl)nicotinamide], the EC50 in series [5] (setting [6]) came to 0.164 µM.
For the molecule `CC(C)(O)[C@H](F)CNC(=O)c1cnc(-c2ccc3cc(C#N)cnn23)cc1NCCCC#N` [Compound 8, (R)-4-((3-cyanopropyl)amino)-6-(3-cyanopyrrolo[1,2-b]pyridazin-7-yl)-N-(2-fluoro-3-hydroxy-3-methylbutyl)nicotinamide], the “Human Hep. Stability” value in series [1] is recorded as 0.14 L/h/kg. For the same molecule, in series [2], the pKa turned out to be 5.9. The IC50 in series [3] was less than 0.001 µM; in series [4] it was 3.5 µM. Moreover, in series [5] (setting [6]), the EC50 came out at 0.033 µM.
As to `CC(C)(C#N)Nc1cc(-c2ccc3cc(C#N)cnn23)ncc1C(=O)NC[C@@H](F)C(C)(C)O` [Compound 9, (R)-4-((2-cyanopropan-2-yl)amino)-6-(3-cyanopyrrolo[1,2-b]pyridazin-7-yl)-N-(2-fluoro-3-hydroxy-3-methylbutyl)nicotinamide], the “Human Hep. Stability” value in series [1] is 0.26 L/h/kg. This molecule registered a pKa in series [2] of 4.8. The same molecule registered an IC50 in series [3] of less than 0.001 µM. The concentration giving a half-maximal response (EC50) in series [5] (setting [6]) is 0.049 µM.
On to `CC(C)(O)[C@H](F)CNC(=O)c1cnc(-c2ccc3cc(C#N)cnn23)cc1NC1(C#N)CC1` [Compound 10, (R)-4-((1-cyanocyclopropyl)amino)-6-(3-cyanopyrrolo[1,2-b]pyridazin-7-yl)-N-(2-fluoro-3-hydroxy-3-methylbutyl)nicotinamide], for which, in series [1], the “Human Hep. Stability” value worked out at 0.22 L/h/kg. For the same molecule, in series [3], the IC50 is less than 0.001 µM. Moreover, the EC50 in series [5] (setting [6]) is 0.035 µM.
